Values of other authors, collected in patent publication US20240374540A1, “FORMULATIONS FOR THE TREATMENT OF OCULAR SURFACE DISEASES AND RELATED METHODS” (priority 2016, published 2024).

Tested on: AQP5
Conditions: human airway epithelial cells (A459 cells)

SMILES: Nc1c(Br)cc(Br)cc1CN[C@H]1CC[C@H](O)CC1 [ambroxol, Ambroxol]
- expression of AQP5: stimulate the expression of AQP5
